Data on two compounds can be found in US10807969B2, “Meglumine salt formulations of 1-(5,6-dichloro-1h-benzo[d]imidazol-2-yl)-1h-pyrazole-4-carboxylic acid” (Janssen Pharmaceutica NV, priority 2011, dated 2020).

This data set can be described thus: Moisture uptake (adsorption/desorption vs relative humidity). The note with it: for Desorption (90-0% RH): moisture loss; for Adsorption (40-90% RH): moisture uptake. The data set is classed as physicochemical. An excerpt: The thermal properties, crystalline nature, apparent purity and moisture uptake of a 6.0 g batch of the free acid of compound (1) are summarized in Table 1.
Two broad endothermic peaks of the potassium salt of compound (1) were seen by DSC that can be associated with a dehydration event and melt/decomposition, respectively (Table 2).

Turning to `O=C(O)c1cnn(-c2nc3cc(Cl)c(Cl)cc3[nH]2)c1` [free acid of compound (1), 1-(5,6-Dichloro-1H-benzoimidazol-2-yl)-1H-pyrazole-4-carboxylic acid], the “Desorption (90-0% RH)” value was −0.96% and the “Adsorption (40-90% RH)” value is given as “+0.59%”.
Take `O=C([O-])c1cnn(-c2nc3cc(Cl)c(Cl)cc3[nH]2)c1.[K+]` [potassium salt of compound (1), potassium salt of 1-(5,6-dichloro-1H-benzoimidazol-2-yl)-1H-pyrazole-4-carboxylic acid]: the “Desorption (90-0% RH)” value is −0.89% and the “Adsorption (40-90% RH)” value is “+0.53%”. Also, the Hygroscopicity result (salt prepared by re-slurry methodology) is “non-hygroscopic”.
